Values of other authors as cited in patent US9890151B2, “3,5-dichloro,4-(3,4-(cyclo-)alkoxyphenyl)- 2-carbonyloxy)ethyl)pyridine derivatives as PDE-4 inhibitors” (CHIESI FARMACEUTICI S.p.A., priority 2014, dated 2018).

[1] = patients with severe disease who have frequent exacerbations and mucus hypersecretion

O=C(Nc1c(Cl)cncc1Cl)c1ccc(OC(F)F)c(OCC2CC2)c1 [roflumilast]
reduction of the numbers of neutrophils in sputum (COPD patients, oral roflumilast given over 4 weeks): 36% | improvement of FEV 1 [1]: approximately 50 mL | reduction of exacerbation [1]: about 15%
